{"source": "patent EP4628519A1", "about": "“ORGANOGERMANIUM(IV) CARBOXYLATES AND MIXTURES OF GERMANIUM CARBOXYLATES WITH ORGANIC ACID ANHYDRIDES AS CATALYSTS” (Technische Universität Graz, priority 2024, dated 2025)", "key": {"[1]": {"assay": "Stability in water", "conditions": "result in words"}, "[2]": {"assay": "Solubility of the germanium carboxylates in solvents (gravimetry or NMR)"}}, "data": [{"smiles": "CC(=O)[O][Ge]([O]C(C)=O)([O]C(C)=O)[O]C(C)=O", "note": "[Ge(OAc)4, germanium(IV) tetraacetate]", "values": [{"measurement": "stability in water", "setting": "[1]", "value": "stable"}, {"measurement": "solubility in H2O", "setting": "[2]; H2O, result in words", "value": "good soluble"}, {"measurement": "m(Ge(OAc)4)", "setting": "[2]; Solvent Benzene, Method NMR", "value": 2.7, "unit": "g/L"}, {"measurement": "m(Ge(OAc)4)", "setting": "[2]; Solvent Chloroform, Method NMR", "value": 4.8, "unit": "g/L"}, {"measurement": "m(Ge(OAc)4)", "setting": "[2]; Solvent DCM, Method Gravimetry", "value": 4.2, "unit": "g/L"}, {"measurement": "m(Ge(OAc)4)", "setting": "[2]; Solvent H2O, Method Gravimetry", "value": 170, "unit": "g/L"}, {"measurement": "m(Ge(OAc)4)", "setting": "[2]; Solvent THF, Method Gravimetry", "value": 4.3, "unit": "g/L"}, {"measurement": "m(Ge(OAc)4)", "setting": "[2]; Solvent Toluene, Method Gravimetry", "value": 2.6, "unit": "g/L"}, {"measurement": "solubility", "setting": "[2]; in toluene, at room temperature", "value": 2.6, "unit": "g/L"}, {"measurement": "solubility in organic solvents", "setting": "[2]; result in words", "value": "poorly soluble"}]}, {"smiles": "CC(=O)[O][Ge]([O]C(C)=O)([O]C(C)=O)[c]1ccccc1", "note": "[PhGe(OAc)3]", "values": [{"measurement": "solubility in organic solvents", "setting": "[2]; result in words", "value": "good soluble"}]}, {"smiles": "CCCCCCCCCCCC(=O)[O][Ge]([O]C(=O)CCCCCCCCCCC)([O]C(=O)CCCCCCCCCCC)[O]C(=O)CCCCCCCCCCC", "note": "[Ge(OLau)4, germanium(IV) tetralaurate]", "values": [{"measurement": "solubility, times higher", "setting": "[2]; Ge(OLau)4 relative to Ge(OAc)4", "value": "around 2 times"}, {"measurement": "solubility", "setting": "[2]; in benzene, determined via NMR", "value": 11, "unit": "g/L"}, {"measurement": "solubility in organic solvents", "setting": "[2]; result in words", "value": "poorly soluble"}]}, {"smiles": "CC(=O)OC(=O)C[CH2][Ge]([O]C(C)=O)([O]C(C)=O)[O]C(C)=O", "note": "[(PAA)Ge(OAc)3]", "values": [{"measurement": "solubility in organic solvents", "setting": "[2]; result in words", "value": "good soluble"}]}, {"smiles": "COC(=O)C[CH2][Ge]([O]C(C)=O)([O]C(C)=O)[O]C(C)=O", "note": "[(PME)Ge(OAc)3]", "values": [{"measurement": "solubility in organic solvents", "setting": "[2]; result in words", "value": "good soluble"}]}]}
